Source: patent US7713994B2 (Wyeth LLC, priority 2005, dated 2010)
Read-outs that look alike come from different tables or passages of the source.

What was measured:
cyclin D1/cdk 4 enzyme = target: T1, cyclin D1/cdk 4 enzyme (Homo sapiens, UniProt P11802); assay: CDK4 ELISA kinase assay (phospho-Rb ser 795 detection); format: biochemical
T1 construct: made in house; host or cells: Sf9 insect cells, recombinant baculovirus
Method in brief: (§1)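 GST-Rb C-terminal fragment coated on plates; partially purified Sf9-expressed cyclin D1/CDK4, cyclin E/CDK2 or cyclin B/CDK1 with 200 μM ATP, pH 7.5 HEPES/MgCl2 buffer, 1 h at 30 °C; screen compound final 10 μg/ml. Phospho-Rb Ser795 detected by antibody ELISA (TMB, A450); % of control, IC50 from background-subtracted inhibition curves.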

cyclin E/CDK2 enzyme = target: T2, cyclin E/CDK2 enzyme (Homo sapiens, UniProt P24941); assay: CDK2 ELISA kinase assay (phospho-Rb ser 795 detection); format: biochemical
T2 construct: made in house; host or cells: Sf9 insect cells, recombinant baculovirus
Method in brief: as §1

cyclin B/CDK1 enzyme = target: T3, cyclin B/CDK1 enzyme (Homo sapiens, UniProt P06493); assay: CDK1 ELISA kinase assay (phospho-Rb ser 795 detection); format: biochemical
T3 construct: purchased New England BioLabs; host or cells: Sf9 insect cells, recombinant baculovirus
T3 sequence (P06493 whole entry): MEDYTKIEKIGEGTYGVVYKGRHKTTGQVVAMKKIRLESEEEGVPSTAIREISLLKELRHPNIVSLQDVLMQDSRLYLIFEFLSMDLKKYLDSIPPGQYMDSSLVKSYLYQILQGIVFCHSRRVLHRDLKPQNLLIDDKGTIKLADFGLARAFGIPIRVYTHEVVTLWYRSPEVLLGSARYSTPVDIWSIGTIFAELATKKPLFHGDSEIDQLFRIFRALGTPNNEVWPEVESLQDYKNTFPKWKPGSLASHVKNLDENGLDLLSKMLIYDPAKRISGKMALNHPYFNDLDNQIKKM
T3 sequence (P14635 whole entry partner): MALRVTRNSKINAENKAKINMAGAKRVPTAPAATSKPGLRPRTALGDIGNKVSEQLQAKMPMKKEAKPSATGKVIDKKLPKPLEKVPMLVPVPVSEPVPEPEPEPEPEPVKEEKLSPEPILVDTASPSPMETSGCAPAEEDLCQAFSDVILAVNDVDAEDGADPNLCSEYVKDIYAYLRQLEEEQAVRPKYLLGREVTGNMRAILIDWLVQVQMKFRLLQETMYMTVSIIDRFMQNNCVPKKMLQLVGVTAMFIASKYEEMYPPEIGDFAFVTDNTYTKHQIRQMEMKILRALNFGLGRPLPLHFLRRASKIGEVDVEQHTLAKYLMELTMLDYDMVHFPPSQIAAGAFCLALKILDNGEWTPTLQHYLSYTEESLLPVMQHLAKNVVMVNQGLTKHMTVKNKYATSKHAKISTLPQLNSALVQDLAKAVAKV
Method in brief: as §1

BT474 = assay: Cytotoxicity assay (SRB), BT474; format: cell-based
Method in brief: (§2)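 Cells grown in RPMI 1640 with 5% FBS were treated with compound for three days (HCT-116, LoVo, MCF-7) or six days (BT474). Viable cell mass was quantified by sulforhodamine B staining of TCA-fixed protein and read at 540 nm.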

HCT-116 = assay: Cytotoxicity assay (SRB), HCT-116; format: cell-based; conditions: Homo sapiens, HCT-116, 72 h, HCT116 cells, SRB, read-out: In Vitro Cellular Activity IC50 HCT116
Method in brief: as §2

LoVo = assay: Cytotoxicity assay (SRB), LoVo; format: cell-based; conditions: Homo sapiens, LoVo, 72 h, LoVo cells, SRB, read-out: In Vitro Cellular Activity IC50 LOVO
Method in brief: as §2

MCF-7 = assay: Cytotoxicity assay (SRB), MCF-7; format: cell-based; conditions: Homo sapiens, MCF7, 72 h, MCF-7 cells, SRB, read-out: In Vitro Cellular Activity IC50 MCF-7
Method in brief: as §2

[1] = In Vitro Enzyme Assays, 200 μM ATP, read-out: CDK4 IC50
[2] = In Vitro Enzyme Assays, read-out: CDK2 IC50
[3] = In Vitro Enzyme Assays, read-out: CDK1 IC50
[4] = Homo sapiens, BT-474, 144 h, BT474 cells, SRB, 6 days; read-out: In Vitro Cellular Activity IC50 BT474
[5] = In Vitro Enzyme Assay, cyclin D1/cdk 4, read-out: CDK4 IC50
[6] = In Vitro Enzyme Assay, cyclin E/CDK2, read-out: CDK2 IC50
[7] = In Vitro Enzyme Assay, cyclin B/CDK1, read-out: CDK1 IC50
[8] = Homo sapiens, BT-474, 144 h, BT474 cells, 6 days, SRB; read-out: In Vitro Cellular Activity IC50 BT474

T1 sequence (P11802 whole entry, species assumed): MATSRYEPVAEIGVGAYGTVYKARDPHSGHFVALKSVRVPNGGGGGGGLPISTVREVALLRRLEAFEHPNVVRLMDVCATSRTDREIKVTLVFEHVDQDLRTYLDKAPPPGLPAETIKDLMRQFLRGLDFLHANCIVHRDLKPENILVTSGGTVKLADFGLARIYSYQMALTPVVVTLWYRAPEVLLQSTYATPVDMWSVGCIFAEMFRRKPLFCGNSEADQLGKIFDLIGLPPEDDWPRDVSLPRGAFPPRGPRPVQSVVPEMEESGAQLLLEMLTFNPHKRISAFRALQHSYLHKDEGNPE
T1 sequence (P24385 whole entry partner, species assumed): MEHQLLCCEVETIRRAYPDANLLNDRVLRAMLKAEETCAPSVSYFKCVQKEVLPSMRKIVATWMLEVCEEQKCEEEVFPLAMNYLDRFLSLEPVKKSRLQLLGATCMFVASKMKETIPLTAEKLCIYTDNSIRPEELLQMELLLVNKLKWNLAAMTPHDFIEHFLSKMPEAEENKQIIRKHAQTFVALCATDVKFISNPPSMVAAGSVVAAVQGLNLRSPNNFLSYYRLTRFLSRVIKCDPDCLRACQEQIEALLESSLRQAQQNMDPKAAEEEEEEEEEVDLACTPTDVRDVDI

SMILES	IC50 (cyclin D1/cdk 4 enzyme; [1]) [µM]	IC50 (cyclin E/CDK2 enzyme; [2]) [µM]	IC50 (cyclin B/CDK1 enzyme; [3]) [µM]	IC50 (BT474; [4]) [µM]	IC50 (HCT-116; three days) [µM]	IC50 (LoVo; three days) [µM]	IC50 (MCF-7; three days) [µM]	melting point [°C]	IC50 (cyclin D1/cdk 4 enzyme; [5]) [µM]	IC50 (cyclin E/CDK2 enzyme; [6]) [µM]	IC50 (cyclin B/CDK1 enzyme; [7]) [µM]	IC50 (BT474; [8]) [µM]	IC50 (HCT-116; 3 days) [µM]	IC50 (LoVo; 3 days) [µM]	IC50 (MCF-7; 3 days) [µM]
CC1CCCN1Cc1ccc(N/C=C2\C(=O)NC(=O)c3ccc(Br)cc32)cc1 (centres unmarked) [Example 287, (4Z)-6-Bromo-4-[({4-[(2-methylpyrrolidin-1-yl)methyl]phenyl}amino)methylene]-isoquinoline-1,3(2H,4H)-dione]	1.6	> 50	> 50	1.3	4.2	5.4	1.7	183 to 184	–	–	–	–	–	–	–
O=C1NC(=O)c2ccc(-c3ccc(F)cc3)cc2/C1=C/Nc1ccc(CN2CCC(CCO)CC2)cc1 [Example 482, (4Z)-6-(4-Fluorophenyl)-4-{[(4-{[4-(2-hydroxyethyl)piperidin-1-yl]methyl}phenyl)amino]methylene}isoquinoline-1,3(2H,4H)-dione]	–	–	–	–	–	–	–	202 to 203	0.12	> 50	> 50	1.3	2.5	2.7	0.84
CO[C@@H]1CCN(Cc2ccc(N/C=C3\C(=O)NC(=O)c4ccc(I)cc43)cc2)C1 [Example 264, (4Z)-6-Iodo-4-{[(4-{[(3R)-3-methoxypyrrolidin-1-yl]methyl}phenyl)amino]methylene}isoquinoline-1,3(2H,4H)-dione]	1	> 50	> 50	2.2	4.4	8.8	2	160 to 161	–	–	–	–	–	–	–
COc1cc(CN/C=C2\C(=O)NC(=O)c3ccc(Br)cc32)cc(OC(C)=O)c1OC [Example 77, 5-({[(Z)-(6-Bromo-1,3-dioxo-2,3-dihydroisoquinolin-4(1H)-ylidene)methyl]amino}methyl)-2,3-dimethoxyphenyl acetate]	0.38	> 50	> 50	7.7	4.8	8.4	14.4	244 to 245	–	–	–	–	–	–	–
O=C1NC(=O)c2ccc(-c3ccc(F)cc3)cc2/C1=C/Nc1ccc(CN2CCCC2)cc1 [Example 127, (4Z)-6-(4-Fluorophenyl)-4-({[4-(pyrrolidin-1-ylmethyl)phenyl]amino}methylene)isoquinoline-1,3(2H,4H)-dione]	0.37	> 50	> 50	1.4	1.3	2.9	1.4	152 to 153	–	–	–	–	–	–	–
O=C1NC(=O)c2ccc(I)cc2/C1=C/Nc1ccc(CN2CCCC2)cc1 [Example 126]	0.66	10	> 50	0.9	3.4	5.1	2.3	186 to 187	–	–	–	–	–	–	–
COc1cc2c(cc1-c1ccoc1)/C(=C/Nc1ccc(N3CCN(C)CC3)cc1)C(=O)NC2=O [Example 254, 6-Furan-3-yl-7-methoxy-4-{[4-(4-methyl-piperazin-1-yl)-phenylamino]-methylene}-4H-isoquinoline-1,3-dione]	7.4	> 50	> 50	2.1	2	4.8	2.4	198 to 220	–	–	–	–	–	–	–
CC(C)N1CCN(c2ccc(N/C=C3\C(=O)NC(=O)c4ccc(-c5ccoc5)cc43)nc2)CC1 [Example 488, (4Z)-6-(3-Furyl)-4-({[5-(4-isopropylpiperazin-1-yl)pyridin-2-yl]amino}methylene)isoquinoline-1,3(2H,4H)-dione]	–	–	–	–	–	–	–	278 to 279	0.43	> 50	> 50	0.96	3.16	2.41	2.27
CN(C)C1CCN(Cc2ccc(N/C=C3\C(=O)NC(=O)c4ccc(I)cc43)cc2)C1 (centres unmarked) [Example 422, (4Z)-4-{[(4-{[3-(Dimethylamino)pyrrolidin-1-yl]methyl}phenyl)amino]methylene}-6-iodoisoquinoline-1,3(2H,4H)-dione]	0.29	> 50	> 50	–	–	–	–	134 to 135	–	–	–	3.7	2	3.8	5.6
C[C@@H]1CN(c2ccc(N/C=C3\C(=O)NC(=O)c4ccc(I)cc43)cc2F)C[C@H](C)N1 [Example 319, (4Z)-4-[({4-[(3R,5S)-3,5-Dimethylpiperazin-1-yl]-3-fluorophenyl}amino)methylene]-6-iodoisoquinoline-1,3(2H,4H)-dione]	1.4	> 50	> 50	3.1	1.5	2.1	2.6	173 to 174	–	–	–	–	–	–	–
CC1CN(C)[C@H](C)CN1c1ccc(N/C=C2\C(=O)NC(=O)c3ccc(Br)cc32)cc1 (stereo in doubt) [Example 238, (4Z)-6-Bromo-4-[({4-[(2S,5R)-2,4,5-trimethylpiperazin-1-yl]phenyl}amino)methylene]-isoquinoline-1,3(2H,4H)-dione]	4.8	> 50	> 50	7.4	6.7	4.3	1	184 to 185	–	–	–	–	–	–	–
O=C1NC(=O)c2ccc(/C=C/CCCCl)cc2/C1=C/Nc1ccc(CN2CCCCC2)cc1 [Example 112, (4Z)-6-[(1E)-5-Chloropent-1-enyl]-4-({[4-(piperidin-1-ylmethyl)phenyl]amino}methylene)isoquinoline-1,3(2H,4H)-dione]	2.9	> 50	3.8	2.3	0.98	1.9	3.3	268 to 269	–	–	–	–	–	–	–
CC(=O)N1CCC(c2ccc(N/C=C3\C(=O)NC(=O)c4ccc(-c5ccoc5)cc43)cc2)CC1 [Example 351, (4Z)-4-({[4-(1-Acetylpiperidin-4-yl)phenyl]amino}methylene)-6-(3-furyl)isoquinoline-1,3(2H,4H)-dione]	0.13	> 50	> 50	1.1	3	2.7	2.1	178 to 179	–	–	–	–	–	–	–
